In article PMC5469811, “Identification of GXXXXG motif in Chrysophsin-1 and its implication in the design of analogs with cell-selective antimicrobial and anti-endotoxin activities” (Scientific Reports, 2017):
In brackets after ≈: the same amount, converted by molar mass. Residues, ends and D or L forms follow the SMILES beside them.

Legend:
[1] = system: Bacillus subtilis (ATCC 6633); experiment: microbe, parasite or virus in culture; assay type: cell-based; conditions: ATCC 6633; read-out: Minimum inhibitory concentration (MIC)
Procedure: (§1) Antibacterial assay against various Gram-positive and Gram-negative strains of bacteria was performed by the serial two-fold dilution method according to the previously reported procedure, [36]. The antibacterial assays were repeated thrice and the averages of these MIC values were reported.

[2] = system: Escherichia coli (ATCC 25922); experiment: microbe, parasite or virus in culture; assay type: cell-based; conditions: ATCC 25922; read-out: Minimum inhibitory concentration (MIC)
Procedure: as §1

[3] = system: Escherichia coli (ATCC 9637); experiment: microbe, parasite or virus in culture; assay type: cell-based; conditions: ATCC 9637; read-out: Minimum inhibitory concentration (MIC)
Procedure: as §1

[4] = system: Klebsiella pneumoniae (ATCC 27736); experiment: microbe, parasite or virus in culture; assay type: cell-based; conditions: ATCC 27736; read-out: Minimum inhibitory concentration (MIC)
Procedure: as §1

[5] = system: Pseudomonas aeruginosa (ATCC BAA-427); experiment: microbe, parasite or virus in culture; assay type: cell-based; conditions: ATCC BAA-427; read-out: Minimum inhibitory concentration (MIC)
Procedure: as §1

[6] = system: Staphylococcus aureus (ATCC 25923); experiment: microbe, parasite or virus in culture; assay type: cell-based; conditions: ATCC 25923; read-out: Minimum inhibitory concentration (MIC)
Procedure: as §1

[7] = system: Staphylococcus aureus (ATCC 29213); experiment: microbe, parasite or virus in culture; assay type: cell-based; conditions: ATCC 29213; read-out: Minimum inhibitory concentration (MIC)
Procedure: as §1

[8] = system: Staphylococcus aureus (ATCC 33592) Methicillin resistant Genatmicin resistant; experiment: microbe, parasite or virus in culture; assay type: cell-based; conditions: ATCC 33592; read-out: Minimum inhibitory concentration (MIC)
Procedure: as §1

[9] = system: Staphylococcus aureus (ATCC 700698 MRSA); experiment: microbe, parasite or virus in culture; assay type: cell-based; conditions: ATCC 700698; read-out: Minimum inhibitory concentration (MIC)
Procedure: as §1

[10] = system: Staphylococcus aureus (ATCC 700699 MRSA); experiment: microbe, parasite or virus in culture; assay type: cell-based; conditions: ATCC 700699; read-out: Minimum inhibitory concentration (MIC)
Procedure: as §1

[11] = system: Staphylococcus aureus (BAA-44)MDR; experiment: microbe, parasite or virus in culture; assay type: cell-based; conditions: BAA-44; read-out: Minimum inhibitory concentration (MIC)
Procedure: as §1

[12] = system: Candida albicans (ATCC 10231); experiment: microbe, parasite or virus in culture; assay type: cell-based; conditions: ATCC 10231, 48 h; read-out: Minimum inhibitory concentration (MIC)
Procedure: (§2) The anti- fungal activity of peptides was performed according to the standard micro broth dilution technique as per NCCLS guidelines. These plates were incubated in a moist chamber at 35 °C, and an absorbance at 492 nm was recorded on a VersaMax microplate reader after 48 h for C. albicans ATCC 10231 and C. parapsilosis ATCC 22019 and 72 h for C. neoformans.

[13] = system: Candida parapsilosis (ATCC 22019); experiment: microbe, parasite or virus in culture; assay type: cell-based; conditions: ATCC 22019, 48 h; read-out: Minimum inhibitory concentration (MIC)
Procedure: as §2

Cryptococcus neoformans = experiment: microbe, parasite or virus in culture; assay type: cell-based; conditions: 72 h; read-out: Minimum inhibitory concentration (MIC)
Procedure: as §2

[14] = system: Sporothrix schenckii (Patient isolates); experiment: microbe, parasite or virus in culture; assay type: cell-based; conditions: 48 h; read-out: Minimum inhibitory concentration (MIC)
E. coli (ATCC 25922) = assay type: cell-based, Escherichia coli; conditions: ATCC 25922, 1 h
Procedure: (§3) E. coli ATCC25922 was grown to 10^6 CFU/ml in fresh MH broth with various divalent and monovalent salts at their physiological concentrations. Serial dilutions of chrysophsin-1 and its variants prepared with the same MH broth were added to the E. coli ATCC 25922 suspensions. The bacteria were incubated at 37 °C in a shaking incubator for 18 h and the MIC values of individual peptides against E. coli ATCC 25922 were determined. Thermal tolerance of Chrysophsin-1 and its variants was checked by incubating the peptides at 4 °C, 60 °C and 90 °C for 1 h prior to MIC determination. The antibacterial activity in presence of serum was carried out by adding a final concentration of 10% fetal bovine serum in the assay diluents containing 0.4% BSA, 0.02% glacial acetic acid. The subsequent steps in both the experiments were consistent with the MIC determination method.

E. coli ATCC 25922 [15] = assay type: cell-based, Escherichia coli; conditions: ATCC 25922, 18 h
Procedure: as §3

S. aureus (ATCC 25923) = assay type: cell-based, Staphylococcus aureus; conditions: ATCC 25923, 1 h
Procedure: as §3

E. coli ATCC 25922 [16] = experiment: Synergy with conventional antibiotics, checkerboard titration; assay type: cell-based, Escherichia coli
Procedure: The checkerboard titration method was followed to check the synergy of peptides with other antibiotics. First, 2-fold serial dilutions of the antibiotics and antimicrobial peptides were prepared. Subsequently, 50 μl each of different concentrations of antibiotics and of antimicrobial peptides was mixed and added into 100 μl of log phase bacteria culture in a 96-well plate. The plates were then incubated at 37 °C for 24 h. The fractional inhibitory concentration (FIC) index (FICI) was calculated as follows[39]: FICI=(MICofdrugAincombination)/(MICofdrugAalone)+(MICofdrugBincombination)/(MICofdrugB): FICI < 0.5 is considered to indicate synergy; 0.5 < FICI < 1.0 is considered additive; 1.0 < FICI < 4.0 is considered indifferent; and FICI > 4.0 is considered antagonism.

Structure (SMILES): CC[C@H](C)[C@H](NC(=O)[C@H](C)NC(=O)[C@H](CCCCN)NC(=O)CNC(=O)[C@H](C)NC(=O)[C@H](Cc1c[nH]cn1)NC(=O)[C@@H](NC(=O)[C@H](C)NC(=O)[C@@H]1CCCN1C(=O)[C@H](CCCCN)NC(=O)[C@@H](NC(=O)[C@H](CC(C)C)NC(=O)[C@H](Cc1c[nH]c2ccccc12)NC(=O)CNC(=O)[C@H](Cc1ccccc1)NC(=O)[C@@H](N)Cc1ccccc1)[C@@H](C)CC)[C@@H](C)CC)C(=O)N[C@@H](Cc1c[nH]cn1)C(=O)NCC(=O)N[C@@H](CC(C)C)C(=O)N[C@H](C(=O)N[C@@H](Cc1c[nH]cn1)C(=O)N[C@@H](CCCNC(=N)N)C(=O)N[C@@H](CCCNC(=N)N)C(=O)N[C@@H](CCCNC(=N)N)C(=O)N[C@@H](Cc1c[nH]cn1)C(N)=O)[C@@H](C)CC [Peptide G8P-Chr-1] (H-FFGWLIKPAIHAGKAIHGLIHRRRH-NH2; N-terminus and C-terminus assumed)
- MIC [1]: 3 µM (≈ 8.79 µg/mL)
- MIC [2]: 4.1 µM (≈ 12 µg/mL)
- MIC [3]: 3.3 µM (≈ 9.67 µg/mL)
- MIC [4]: 3.3 µM (≈ 9.67 µg/mL)
- MIC [5]: 6.8 µM (≈ 19.9 µg/mL)
- MIC [6]: 3 µM (≈ 8.79 µg/mL)
- MIC [7]: 1.6 µM (≈ 4.69 µg/mL)
- MIC [8]: 0.8 µM (≈ 2.35 µg/mL)
- MIC [9]: 1.6 µM (≈ 4.69 µg/mL)
- MIC [10]: 1.6 µM (≈ 4.69 µg/mL)
- MIC [11]: 1.6 µM (≈ 4.69 µg/mL)
- MIC [12]: 3 µM (≈ 8.79 µg/mL)
- MIC [13]: 6.8 µM (≈ 19.9 µg/mL)
- MIC (Cryptococcus neoformans): 6.8 µM (≈ 19.9 µg/mL)
- MIC [14]: 13.6 µM (≈ 39.9 µg/mL)
- Antibacterial activity (MIC) after incubating peptide at 4 °C (E. coli (ATCC 25922)): 4.1 µM
- Antibacterial activity (MIC) after incubating peptide at 60 °C (E. coli (ATCC 25922)): 4.3 µM
- Antibacterial activity (MIC) after incubating peptide at 90 °C (E. coli (ATCC 25922)): 8.3 µM
- Antibacterial activity (MIC) in the presence of 10% FBS (E. coli ATCC 25922 [15]): 8.6 µM
- Antibacterial activity (MIC) in the presence of FeCl3 (E. coli ATCC 25922 [15]): 4.1 µM
- Antibacterial activity (MIC) in the presence of KCl (E. coli ATCC 25922 [15]): 4.3 µM
- Antibacterial activity (MIC) in the presence of MgCl2 (E. coli ATCC 25922 [15]): 4.3 µM
- Antibacterial activity (MIC) in the presence of NH4Cl (E. coli ATCC 25922 [15]): 2.0 µM
- Antibacterial activity (MIC) in the presence of NaCl (E. coli ATCC 25922 [15]): 8.6 µM
- Antibacterial activity (MIC) in the presence of ZnCl2 (E. coli ATCC 25922 [15]): 2 µM
- Antibacterial activity (MIC) after incubating peptide at 4 °C (S. aureus (ATCC 25923)): 3 µM
- Antibacterial activity (MIC) after incubating peptide at 60 °C (S. aureus (ATCC 25923)): 4.3 µM
- Antibacterial activity (MIC) after incubating peptide at 90 °C (S. aureus (ATCC 25923)): 8.6 µM
- interaction of peptide with chloramphenicol (by FICI) (E. coli ATCC 25922 [16]): synergy (FICI < 0.5 is considered to indicate synergy)
